Experimental data from ChEMBL document CHEMBL4507260 (2021).

What was measured:
Conditions in all cases: Compound concentration 1000.0 nM
[1] = target: Serine/threonine-protein kinase NIM1 (Homo sapiens) (UniProt Q8IY84)
[2] = target: Casein kinase I isoform epsilon (Homo sapiens) (UniProt P49674)
[3] = tested on: Epidermal growth factor receptor (Homo sapiens), P00533 [L858R,T790M]
[4] = target: Wee1-like protein kinase (Homo sapiens) (UniProt P30291)
[5] = target: Leukocyte tyrosine kinase receptor (Homo sapiens) (UniProt P29376)
[6] = target: Casein kinase I isoform gamma-2 (Homo sapiens) (UniProt P78368)
[7] = target: Activin receptor type-1 (Homo sapiens) (UniProt Q04771)
[8] = target: Mitogen-activated protein kinase kinase kinase 6 (Homo sapiens) (UniProt O95382)
[9] = target: Serine/threonine-protein kinase 17B (Homo sapiens) (UniProt O94768)
[10] = target: Ribosomal protein S6 kinase alpha-6 (Homo sapiens) (UniProt Q9UK32)
[11] = tested on: Epidermal growth factor receptor (Homo sapiens), P00533 [T790M]
[12] = target: Serine/threonine-protein kinase tousled-like 2 (Homo sapiens) (UniProt Q86UE8)
[13] = target: Serine/threonine-protein kinase PAK 5 (Homo sapiens) (UniProt Q9P286)
[14] = target: Ephrin type-B receptor 4 (Homo sapiens) (UniProt P54760)
[15] = target: Tyrosine-protein kinase Srms (Homo sapiens) (UniProt Q9H3Y6)
[16] = target: Mitogen-activated protein kinase 1 (Homo sapiens) (UniProt P28482)
[17] = tested on: Tyrosine-protein kinase ABL1 (Homo sapiens), P00519 [F317I]
[18] = target: Bone morphogenetic protein receptor type-1A (Homo sapiens) (UniProt P36894)
[19] = tested on: Mast/stem cell growth factor receptor Kit (Homo sapiens), P10721 [V559D,T670I]
[20] = target: Dual specificity mitogen-activated protein kinase kinase 6 (Homo sapiens) (UniProt P52564)
[21] = target: Glycogen synthase kinase-3 alpha (Homo sapiens) (UniProt P49840)
[22] = target: Mitogen-activated protein kinase kinase kinase 9 (Homo sapiens) (UniProt P80192)
[23] = target: MAP/microtubule affinity-regulating kinase 3 (Homo sapiens) (UniProt P27448)
[24] = target: Serine/threonine-protein kinase D2 (Homo sapiens) (UniProt Q9BZL6)
[25] = tested on: Tyrosine-protein kinase ABL1 (Homo sapiens), P00519 [H396P]
[26] = tested on: Epidermal growth factor receptor (Homo sapiens), P00533 [G719S]
[27] = target: Cyclin-dependent kinase 3 (Homo sapiens) (UniProt Q00526)
[28] = target: Ephrin type-A receptor 3 (Homo sapiens) (UniProt P29320)
[29] = target: Myotonin-protein kinase (Homo sapiens) (UniProt Q09013)
[30] = target: Citron Rho-interacting kinase (Homo sapiens) (UniProt O14578)
[31] = tested on: Tyrosine-protein kinase ABL1 (Homo sapiens), P00519 [Q252H]
[32] = target: Homeodomain-interacting protein kinase 3 (Homo sapiens) (UniProt Q9H422)
[33] = target: Serine/threonine-protein kinase VRK2 (Homo sapiens) (UniProt Q86Y07)
[34] = target: Ribosomal protein S6 kinase alpha-2 (Homo sapiens) (UniProt Q15349)
[35] = tested on: Receptor-type tyrosine-protein kinase FLT3 (Homo sapiens), P36888 [UNDEFINED MUTATION]
[36] = target: Cyclin-dependent kinase 19 (Homo sapiens) (UniProt Q9BWU1)
[37] = target: Macrophage-stimulating protein receptor (Homo sapiens) (UniProt Q04912)
[38] = target: Serine/threonine-protein kinase MARK1 (Homo sapiens) (UniProt Q9P0L2)
[39] = target: Serine/threonine-protein kinase mTOR (Homo sapiens) (UniProt P42345)
[40] = target: Serine/threonine-protein kinase SIK1 (Homo sapiens) (UniProt P57059)
[41] = target: Mitogen-activated protein kinase kinase kinase 12 (Homo sapiens) (UniProt Q12852)
[42] = target: Mitogen-activated protein kinase 3 (Homo sapiens) (UniProt P27361)
[43] = target: Receptor-type tyrosine-protein kinase FLT3 (Homo sapiens) (UniProt P36888)
[44] = target: Ephrin type-A receptor 8 (Homo sapiens) (UniProt P29322)
[45] = target: Protein kinase C delta type (Homo sapiens) (UniProt Q05655)
[46] = target: Myosin light chain kinase, smooth muscle (Homo sapiens) (UniProt Q15746)

Measured: residual activity

Mitogen-activated protein kinase kinase kinase 9 (Homo sapiens), sequence (P80192 whole entry, looked up): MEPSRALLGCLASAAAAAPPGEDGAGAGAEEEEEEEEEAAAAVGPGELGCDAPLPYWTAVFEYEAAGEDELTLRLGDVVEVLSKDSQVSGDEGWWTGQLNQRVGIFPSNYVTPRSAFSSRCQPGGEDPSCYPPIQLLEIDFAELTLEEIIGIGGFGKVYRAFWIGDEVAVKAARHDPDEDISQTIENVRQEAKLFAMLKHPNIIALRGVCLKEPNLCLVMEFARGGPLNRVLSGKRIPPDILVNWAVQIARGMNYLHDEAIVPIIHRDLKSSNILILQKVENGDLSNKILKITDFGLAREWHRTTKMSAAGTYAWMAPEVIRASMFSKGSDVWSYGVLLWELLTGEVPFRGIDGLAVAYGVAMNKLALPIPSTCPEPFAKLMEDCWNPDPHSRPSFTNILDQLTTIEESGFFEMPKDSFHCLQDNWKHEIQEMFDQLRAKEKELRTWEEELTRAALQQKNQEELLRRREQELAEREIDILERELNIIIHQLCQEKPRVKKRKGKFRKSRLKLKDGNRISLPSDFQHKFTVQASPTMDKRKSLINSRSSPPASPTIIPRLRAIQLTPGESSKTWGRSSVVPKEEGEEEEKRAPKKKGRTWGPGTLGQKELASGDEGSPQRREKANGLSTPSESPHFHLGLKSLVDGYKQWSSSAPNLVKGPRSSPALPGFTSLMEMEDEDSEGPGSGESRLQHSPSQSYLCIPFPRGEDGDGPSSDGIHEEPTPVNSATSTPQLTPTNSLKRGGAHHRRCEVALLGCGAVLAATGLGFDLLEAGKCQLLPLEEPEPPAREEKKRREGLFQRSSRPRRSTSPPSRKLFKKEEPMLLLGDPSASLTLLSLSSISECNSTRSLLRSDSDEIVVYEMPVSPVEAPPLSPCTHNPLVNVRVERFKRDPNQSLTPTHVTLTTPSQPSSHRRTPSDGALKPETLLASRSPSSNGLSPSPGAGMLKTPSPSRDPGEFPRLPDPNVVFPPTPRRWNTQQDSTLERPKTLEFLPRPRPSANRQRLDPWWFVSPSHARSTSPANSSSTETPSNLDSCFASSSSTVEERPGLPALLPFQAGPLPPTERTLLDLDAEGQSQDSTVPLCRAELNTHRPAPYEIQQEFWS
Cyclin-dependent kinase 19 (Homo sapiens), sequence (Q9BWU1 whole entry): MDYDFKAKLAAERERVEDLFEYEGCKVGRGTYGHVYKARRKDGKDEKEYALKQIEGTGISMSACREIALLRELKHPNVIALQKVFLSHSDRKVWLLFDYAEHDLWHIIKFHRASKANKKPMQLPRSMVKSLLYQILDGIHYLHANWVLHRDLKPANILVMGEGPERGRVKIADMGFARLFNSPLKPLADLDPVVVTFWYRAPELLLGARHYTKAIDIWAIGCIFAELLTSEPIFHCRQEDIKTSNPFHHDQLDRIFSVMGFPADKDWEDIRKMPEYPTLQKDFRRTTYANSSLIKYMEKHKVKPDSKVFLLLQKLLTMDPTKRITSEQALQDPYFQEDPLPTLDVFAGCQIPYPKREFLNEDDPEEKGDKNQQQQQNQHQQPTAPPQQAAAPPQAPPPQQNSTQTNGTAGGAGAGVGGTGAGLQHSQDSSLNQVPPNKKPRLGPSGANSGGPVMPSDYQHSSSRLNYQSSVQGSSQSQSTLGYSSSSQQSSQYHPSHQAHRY
Serine/threonine-protein kinase tousled-like 2 (Homo sapiens), sequence (Q86UE8 whole entry, looked up): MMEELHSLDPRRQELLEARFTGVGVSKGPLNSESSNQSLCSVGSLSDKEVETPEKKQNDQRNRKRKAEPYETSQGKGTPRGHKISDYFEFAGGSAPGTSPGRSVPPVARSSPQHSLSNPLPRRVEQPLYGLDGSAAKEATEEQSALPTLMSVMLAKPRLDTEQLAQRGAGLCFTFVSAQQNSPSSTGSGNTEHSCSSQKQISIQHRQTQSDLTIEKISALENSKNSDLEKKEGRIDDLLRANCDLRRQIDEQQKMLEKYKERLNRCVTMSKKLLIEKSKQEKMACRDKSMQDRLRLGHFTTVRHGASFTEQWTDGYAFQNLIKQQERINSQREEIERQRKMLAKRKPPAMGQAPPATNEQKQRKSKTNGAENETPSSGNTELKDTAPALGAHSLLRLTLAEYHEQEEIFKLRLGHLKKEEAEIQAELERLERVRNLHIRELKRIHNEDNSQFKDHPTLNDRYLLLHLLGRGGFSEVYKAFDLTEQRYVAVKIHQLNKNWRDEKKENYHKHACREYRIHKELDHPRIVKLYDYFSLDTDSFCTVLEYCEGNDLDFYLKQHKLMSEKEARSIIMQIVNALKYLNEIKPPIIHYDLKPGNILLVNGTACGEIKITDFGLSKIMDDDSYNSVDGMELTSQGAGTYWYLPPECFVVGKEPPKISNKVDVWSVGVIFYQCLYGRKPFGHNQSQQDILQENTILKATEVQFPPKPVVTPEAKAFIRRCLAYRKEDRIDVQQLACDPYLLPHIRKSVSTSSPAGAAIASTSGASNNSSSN
Myosin light chain kinase, smooth muscle (Homo sapiens), sequence (Q15746 whole entry): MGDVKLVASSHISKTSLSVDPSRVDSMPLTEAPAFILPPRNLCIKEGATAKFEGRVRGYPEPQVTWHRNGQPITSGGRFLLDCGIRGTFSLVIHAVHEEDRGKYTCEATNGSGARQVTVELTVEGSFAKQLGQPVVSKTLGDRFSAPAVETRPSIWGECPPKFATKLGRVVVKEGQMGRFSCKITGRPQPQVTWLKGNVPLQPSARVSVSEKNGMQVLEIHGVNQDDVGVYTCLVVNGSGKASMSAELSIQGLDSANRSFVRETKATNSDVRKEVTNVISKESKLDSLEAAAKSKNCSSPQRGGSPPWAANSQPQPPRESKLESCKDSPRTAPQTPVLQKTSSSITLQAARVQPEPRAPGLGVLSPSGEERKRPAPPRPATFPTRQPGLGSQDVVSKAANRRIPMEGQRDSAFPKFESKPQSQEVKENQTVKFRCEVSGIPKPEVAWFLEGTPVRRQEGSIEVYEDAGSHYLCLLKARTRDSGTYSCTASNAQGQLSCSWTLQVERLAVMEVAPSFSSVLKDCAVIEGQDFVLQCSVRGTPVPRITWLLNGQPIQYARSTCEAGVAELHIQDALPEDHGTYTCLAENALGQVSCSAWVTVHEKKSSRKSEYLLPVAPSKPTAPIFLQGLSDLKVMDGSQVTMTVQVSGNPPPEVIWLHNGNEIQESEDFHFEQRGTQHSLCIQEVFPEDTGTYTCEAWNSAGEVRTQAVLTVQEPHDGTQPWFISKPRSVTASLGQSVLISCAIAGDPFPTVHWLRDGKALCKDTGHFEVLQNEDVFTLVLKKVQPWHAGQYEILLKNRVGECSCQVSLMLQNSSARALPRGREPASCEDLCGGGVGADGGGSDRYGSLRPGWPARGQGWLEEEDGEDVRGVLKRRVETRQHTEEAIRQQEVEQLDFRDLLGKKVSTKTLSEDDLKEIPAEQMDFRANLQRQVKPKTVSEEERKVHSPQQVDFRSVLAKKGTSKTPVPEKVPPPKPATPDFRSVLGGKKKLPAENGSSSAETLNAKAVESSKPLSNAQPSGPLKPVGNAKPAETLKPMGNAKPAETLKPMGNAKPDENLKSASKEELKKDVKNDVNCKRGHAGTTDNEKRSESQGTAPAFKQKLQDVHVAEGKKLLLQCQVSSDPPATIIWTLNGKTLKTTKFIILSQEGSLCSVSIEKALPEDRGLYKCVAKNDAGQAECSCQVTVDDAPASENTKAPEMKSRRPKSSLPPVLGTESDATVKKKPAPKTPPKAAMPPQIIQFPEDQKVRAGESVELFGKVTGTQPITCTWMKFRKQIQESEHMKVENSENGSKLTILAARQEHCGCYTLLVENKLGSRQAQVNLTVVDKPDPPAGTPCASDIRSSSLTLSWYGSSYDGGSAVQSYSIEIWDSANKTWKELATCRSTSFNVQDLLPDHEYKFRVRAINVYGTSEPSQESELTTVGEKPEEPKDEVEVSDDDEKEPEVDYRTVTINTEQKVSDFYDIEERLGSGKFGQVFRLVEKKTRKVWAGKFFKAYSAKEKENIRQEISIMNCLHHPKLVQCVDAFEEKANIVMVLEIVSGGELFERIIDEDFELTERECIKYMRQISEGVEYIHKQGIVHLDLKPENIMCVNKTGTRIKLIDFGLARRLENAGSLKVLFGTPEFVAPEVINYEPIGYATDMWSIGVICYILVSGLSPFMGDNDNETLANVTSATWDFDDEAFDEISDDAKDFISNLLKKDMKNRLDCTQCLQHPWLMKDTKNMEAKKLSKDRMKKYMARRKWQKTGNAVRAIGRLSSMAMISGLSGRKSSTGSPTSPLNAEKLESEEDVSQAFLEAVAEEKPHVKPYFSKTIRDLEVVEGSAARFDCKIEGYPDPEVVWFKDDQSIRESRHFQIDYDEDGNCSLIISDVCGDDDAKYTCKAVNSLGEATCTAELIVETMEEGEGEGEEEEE
Ribosomal protein S6 kinase alpha-6 (Homo sapiens), sequence (Q9UK32 whole entry): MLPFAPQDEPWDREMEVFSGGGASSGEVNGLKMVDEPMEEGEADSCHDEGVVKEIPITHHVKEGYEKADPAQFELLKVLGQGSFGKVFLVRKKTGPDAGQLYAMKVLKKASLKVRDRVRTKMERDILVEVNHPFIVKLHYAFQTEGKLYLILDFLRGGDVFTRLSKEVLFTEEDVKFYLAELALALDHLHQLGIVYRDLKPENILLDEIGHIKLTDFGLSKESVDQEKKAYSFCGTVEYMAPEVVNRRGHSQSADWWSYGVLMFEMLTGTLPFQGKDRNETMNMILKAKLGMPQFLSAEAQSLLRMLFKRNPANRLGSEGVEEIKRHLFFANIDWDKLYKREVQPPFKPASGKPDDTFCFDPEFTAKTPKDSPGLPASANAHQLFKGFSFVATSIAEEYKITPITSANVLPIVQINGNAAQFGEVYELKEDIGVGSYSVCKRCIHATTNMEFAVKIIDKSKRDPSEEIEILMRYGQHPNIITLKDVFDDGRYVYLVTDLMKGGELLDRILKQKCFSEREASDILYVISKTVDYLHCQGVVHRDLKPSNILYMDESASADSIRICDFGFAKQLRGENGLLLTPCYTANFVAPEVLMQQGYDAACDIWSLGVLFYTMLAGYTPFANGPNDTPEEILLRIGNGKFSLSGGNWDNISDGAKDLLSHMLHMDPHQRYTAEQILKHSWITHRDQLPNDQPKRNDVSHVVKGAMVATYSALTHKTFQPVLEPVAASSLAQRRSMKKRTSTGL

CSc1cccnc1N1CCN(Cc2nc3ccccc3[nH]2)CC1 [A-769]
inactive: [1] 84% | [2] 91% | [3] 91% | [4] 100% | [5] 89% | [6] 99% | [7] 100% | [8] 92% | [9] 100% | [10] 94% | [11] 85% | [12] 100% | [13] 97% | [14] 100% | [15] 100% | [16] 93% | [17] 100% | [18] 100% | [19] 100% | [20] 100% | [21] 100% | [22] 100% | [23] 98% | [24] 100% | [25] 77% | [26] 98% | [27] 100% | [28] 100% | [29] 81% | [30] 100% | [31] 71% | [32] 96% | [33] 75% | [34] 100% | [35] 100% | [36] 96% | [37] 100% | [38] 100% | [39] 100% | [40] 100% | [41] 74% | [42] 99% | [43] 91% | [44] 95% | [45] 100% | [46] 94%

c1ccc(N2CCN(Cc3nc4ccccc4[nH]3)CC2)nc1 [ABT-724]
inactive: [1] 100% | [2] 100% | [3] 100% | [4] 100% | [5] 100% | [6] 100% | [7] 100% | [8] 98% | [9] 100% | [10] 100% | [11] 99% | [12] 100% | [13] 100% | [14] 100% | [15] 94% | [16] 100% | [17] 100% | [18] 86% | [19] 95% | [20] 100% | [21] 66% | [22] 100% | [23] 100% | [24] 91% | [25] 100% | [26] 91% | [27] 100% | [28] 100% | [29] 100% | [30] 88% | [31] 100% | [32] 100% | [33] 100% | [34] 100% | [35] 100% | [36] 87% | [37] 100% | [38] 100% | [39] 100% | [40] 100% | [41] 97% | [42] 100% | [43] 100% | [44] 100% | [45] 100% | [46] 80%
